This is an account of results in ChEMBL document CHEMBL1221290, “Novel imidazobenzazepine derivatives as dual H1/5-HT2A antagonists for the treatment of sleep disorders” (Bioorg Med Chem Lett, 2010).

Some results are limits rather than exact numbers.

The target of series [1] is 5-hydroxytryptamine receptor 2B (Homo sapiens, UniProt P41595). Nature of the series: Antagonist activity at human 5HT2B receptor expressed in human SHSY5Y cells by FLPR assay. It is filed as functional, cell-based, SH-SY5Y.
In series [2] the target is 5-hydroxytryptamine receptor 2A (Homo sapiens, UniProt P28223). The series can be described thus: Antagonist activity at human 5HT2A receptor expressed in HEK cells assessed as intracellular calcium luminescence by aequorin assay. It is filed as functional, cell-based, HEK293. For orientation: Calcium assays in cells follow changes in intracellular calcium, usually with a dye or a luminescent sensor.

The target in series [3] is T1, 5-hydroxytryptamine receptor 2C (Homo sapiens, UniProt P28335).
T1 sequence (P28335 whole entry): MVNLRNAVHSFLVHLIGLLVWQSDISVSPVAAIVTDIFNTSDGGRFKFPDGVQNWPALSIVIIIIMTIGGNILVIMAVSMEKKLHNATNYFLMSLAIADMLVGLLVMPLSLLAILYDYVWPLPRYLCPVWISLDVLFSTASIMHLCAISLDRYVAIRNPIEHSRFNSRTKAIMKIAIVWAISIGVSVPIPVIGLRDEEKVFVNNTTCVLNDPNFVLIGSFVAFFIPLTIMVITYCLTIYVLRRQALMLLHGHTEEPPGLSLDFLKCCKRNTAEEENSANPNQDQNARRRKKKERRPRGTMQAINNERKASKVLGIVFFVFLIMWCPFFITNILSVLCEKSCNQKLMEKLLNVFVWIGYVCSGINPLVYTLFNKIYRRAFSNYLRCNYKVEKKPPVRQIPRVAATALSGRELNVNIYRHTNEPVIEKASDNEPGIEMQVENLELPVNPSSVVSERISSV
The series can be described thus: Antagonist activity at human 5HT2C receptor expressed in human SHSY5Y cells by FLPR assay. The following applies: for pKi: sh-sy5y. It is filed as functional, cell-based, SH-SY5Y.

The target in the next series is Histamine H1 receptor (Homo sapiens, UniProt P35367). The series can be described thus: Antagonist activity at human recombinant histamine H1 receptor expressed in CHO cells by FLPR assay. It is filed as functional, cell-based.
The target of series [4] is T2, Alpha-1A adrenergic receptor (Homo sapiens, UniProt P35348).
T2 sequence (P35348 whole entry): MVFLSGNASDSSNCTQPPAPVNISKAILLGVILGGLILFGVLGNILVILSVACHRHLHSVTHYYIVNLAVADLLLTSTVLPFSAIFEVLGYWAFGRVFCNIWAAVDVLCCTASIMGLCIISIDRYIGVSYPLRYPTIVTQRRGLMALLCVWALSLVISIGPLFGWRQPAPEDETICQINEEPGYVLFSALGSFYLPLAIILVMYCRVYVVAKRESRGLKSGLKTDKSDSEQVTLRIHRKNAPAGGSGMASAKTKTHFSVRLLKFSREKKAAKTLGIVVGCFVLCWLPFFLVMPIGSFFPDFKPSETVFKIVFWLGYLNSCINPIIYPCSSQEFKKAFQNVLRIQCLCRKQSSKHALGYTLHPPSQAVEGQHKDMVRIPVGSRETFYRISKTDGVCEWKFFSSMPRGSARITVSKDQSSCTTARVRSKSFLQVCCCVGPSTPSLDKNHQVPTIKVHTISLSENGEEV
The series can be described thus: Antagonist activity at human adrenergic alpha1A receptor assessed as intracellular calcium luminescence by cell based aequorin assay. It is filed as functional.

In series [5] the target is T3, Alpha-1B adrenergic receptor (Homo sapiens, UniProt P35368).
T3 sequence (P35368 whole entry): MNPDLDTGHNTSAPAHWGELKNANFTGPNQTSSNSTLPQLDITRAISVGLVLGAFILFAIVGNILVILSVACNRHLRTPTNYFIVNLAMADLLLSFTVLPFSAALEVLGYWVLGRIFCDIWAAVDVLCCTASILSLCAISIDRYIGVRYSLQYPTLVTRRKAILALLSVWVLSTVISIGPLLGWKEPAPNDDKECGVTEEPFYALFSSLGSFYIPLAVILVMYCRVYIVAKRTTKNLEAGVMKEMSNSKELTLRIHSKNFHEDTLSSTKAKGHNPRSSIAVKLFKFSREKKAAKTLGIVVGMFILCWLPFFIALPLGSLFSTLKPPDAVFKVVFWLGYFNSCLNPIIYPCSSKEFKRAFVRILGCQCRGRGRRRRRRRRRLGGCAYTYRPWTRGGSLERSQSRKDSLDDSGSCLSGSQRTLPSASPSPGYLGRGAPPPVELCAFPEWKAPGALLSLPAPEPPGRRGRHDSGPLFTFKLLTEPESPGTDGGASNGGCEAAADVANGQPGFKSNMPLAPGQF
Nature of the series: Antagonist activity at human adrenergic Alpha-1B receptor assessed as intracellular calcium luminescence by cell based aequorin assay. It is filed as functional.

A short description of series [6]: AUC (0 to 8 hrs) ratio of drug level in brain to blood in rat at 1 mg/kg, po. The following applies: read-out: Ratio AUC. Set-up: dose 1 mg/kg, route oral. It is filed as ADME, organism-based.
Series [7] is described as follows: Half life in rat at 0.5 mg/kg, iv and 1 mg/kg, po. The following applies: in vivo. It is filed as ADME, organism-based.
Series [8] in a line: Blood clearance in rat at 0.5 mg/kg, iv and 1 mg/kg, po. It is filed as ADME, organism-based.
A short description of series [9]: Fraction unbound in rat brain. It is filed as ADME, tissue-based.
Series [10] can be described thus: Fraction unbound in rat blood. It is filed as ADME, tissue-based.
Series [11] can be described thus: Oral bioavailability in rat at 1 mg/kg. It is filed as ADME, organism-based. The settings on record: in vivo.
Series [12] in a line: Volume of distribution at steady state in rat at 0.5 mg/kg, iv and 1 mg/kg, po. The following applies: in vivo, read-out: Vdss. It is filed as ADME, organism-based.
Series [13] in a line: Oral bioavailability in rat at 3 mg/kg. It is filed as ADME, organism-based. The settings on record: in vivo.
Series [14] can be described thus: Half life in rat at 1 mg/kg, iv and 3 mg/kg, po. It is filed as ADME, organism-based. The following applies: in vivo.
Series [15] in a line: Blood clearance in rat at 1 mg/kg, iv and 3 mg/kg, po. It is filed as ADME, organism-based.
Series [16] in a line: AUC (0 to 8 hrs) ratio of drug level in brain to blood in rat at 3 mg/kg, po. It is filed as ADME, organism-based. Set-up: dose 3 mg/kg, route oral. The following applies: read-out: Ratio AUC.
A short description of series [17]: Volume of distribution at steady state in rat at 1 mg/kg, iv and 3 mg/kg, po. It is filed as ADME, organism-based. The following applies: in vivo, read-out: Vdss.

Histamine H1 receptor, sequence (P35367 whole entry): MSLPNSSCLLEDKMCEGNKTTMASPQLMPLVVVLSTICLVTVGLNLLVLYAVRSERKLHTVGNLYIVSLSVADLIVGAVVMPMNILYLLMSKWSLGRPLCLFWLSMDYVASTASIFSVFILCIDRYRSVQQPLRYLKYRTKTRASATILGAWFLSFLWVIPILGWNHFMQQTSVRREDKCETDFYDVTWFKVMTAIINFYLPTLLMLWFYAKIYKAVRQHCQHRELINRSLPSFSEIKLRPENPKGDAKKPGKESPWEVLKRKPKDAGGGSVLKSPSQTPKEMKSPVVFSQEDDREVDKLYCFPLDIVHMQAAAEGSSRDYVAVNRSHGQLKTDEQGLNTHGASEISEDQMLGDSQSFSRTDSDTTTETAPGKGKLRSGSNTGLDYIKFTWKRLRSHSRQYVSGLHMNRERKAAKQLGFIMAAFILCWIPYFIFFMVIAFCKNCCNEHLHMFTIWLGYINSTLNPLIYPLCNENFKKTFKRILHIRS
5-hydroxytryptamine receptor 2B, sequence (P41595 whole entry): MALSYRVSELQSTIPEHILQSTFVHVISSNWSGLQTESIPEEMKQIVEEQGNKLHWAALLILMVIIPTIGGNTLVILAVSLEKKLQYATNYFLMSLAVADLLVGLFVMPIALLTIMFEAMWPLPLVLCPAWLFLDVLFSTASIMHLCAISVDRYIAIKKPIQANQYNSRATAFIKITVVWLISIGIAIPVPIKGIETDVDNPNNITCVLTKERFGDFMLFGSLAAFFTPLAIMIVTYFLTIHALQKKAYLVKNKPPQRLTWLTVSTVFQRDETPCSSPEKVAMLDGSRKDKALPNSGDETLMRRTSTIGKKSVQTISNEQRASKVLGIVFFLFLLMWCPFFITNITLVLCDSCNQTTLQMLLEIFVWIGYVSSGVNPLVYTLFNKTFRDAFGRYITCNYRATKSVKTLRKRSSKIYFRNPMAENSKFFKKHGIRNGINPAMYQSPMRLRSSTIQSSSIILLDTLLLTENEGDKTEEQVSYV
5-hydroxytryptamine receptor 2A, sequence (P28223 whole entry): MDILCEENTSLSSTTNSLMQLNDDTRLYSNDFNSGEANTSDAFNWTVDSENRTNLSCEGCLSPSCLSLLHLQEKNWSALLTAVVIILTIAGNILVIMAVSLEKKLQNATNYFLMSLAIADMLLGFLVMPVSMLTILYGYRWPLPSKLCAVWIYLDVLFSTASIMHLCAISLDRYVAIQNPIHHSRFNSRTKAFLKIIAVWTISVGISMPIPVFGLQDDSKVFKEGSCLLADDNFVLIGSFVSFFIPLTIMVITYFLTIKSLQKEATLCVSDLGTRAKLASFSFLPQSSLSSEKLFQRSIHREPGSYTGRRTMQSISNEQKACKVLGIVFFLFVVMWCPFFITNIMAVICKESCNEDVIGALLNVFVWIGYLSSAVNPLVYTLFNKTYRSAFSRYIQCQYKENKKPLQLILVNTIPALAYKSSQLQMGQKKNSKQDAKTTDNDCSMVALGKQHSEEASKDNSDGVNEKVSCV

A word on the Ki: it is the equilibrium dissociation constant of an inhibitor or competing ligand from its target. With `C=C(CN1CCN(C2=Cc3ccccc3Cn3ccnc32)CC1)C(=O)O`, the Ki in series [1] is greater than 794 nM; in series [2] it was 200 nM; in series [3], 501 nM; on Histamine H1 receptor, 31.6 nM.
On to `O=C(O)CCN1CCN(C2=Cc3ccccc3Cn3ccnc32)CC1`, for which the Ki is greater than 794 nM in series [1], 316 nM in series [2], greater than 794 nM in series [3] and 50.1 nM at Histamine H1 receptor.
For `O=C(O)C1CCC(N2CCN(C3=Cc4ccccc4Cn4ccnc43)CC2)CC1` (single isomer, unassigned; isomer 1), the inhibition constant Ki is 39.8 nM in series [1], 631 nM in series [2], greater than 2000 nM in series [3] and 126 nM at Histamine H1 receptor.
As to `Cc1nc2n(c1C)Cc1ccccc1C=C2N1CCN(CC(C)(C)C(=O)O)CC1`, the Ki was 15.8 nM in series [1], 398 nM in [2], 63.1 nM in series [3] and 39.8 nM on Histamine H1 receptor.
What is called pKi is the Ki on a negative log10 scale, so that one unit is a factor of ten. Consider `O=C(O)C1CCC(N2CCN(C3=Cc4ccccc4Cn4ccnc43)CC2)CC1` (stereo in doubt; 16), for which the Ki in series [1] was 25.1 nM; in [2], 501 nM; at Histamine H1 receptor, 63.1 nM. The molecule also registered a negative logarithm of the Ki (pKi) in series [3] of less than 5.7.
Take `COc1cnc2n1Cc1ccccc1C=C2N1CCN(CC(C)(C)C(=O)O)CC1`: the Ki in series [1] is 158 nM; in series [2] it was 251 nM; in [3] it was 501 nM; on Histamine H1 receptor, 126 nM.
For the molecule `Cc1cn2c(n1)C(N1CCN(CC(C)(C)C(=O)O)CC1)=Cc1ccccc1C2`, the inhibitory constant (Ki) in series [1] was 63.1 nM; in series [2], 126 nM; in series [3], 31.6 nM; on Histamine H1 receptor it was 50.1 nM.
Turning to `C1=C(N2CCNCC2)c2nccn2Cc2ccccc21`, the inhibitory constant (Ki) is 316 nM in [1]; 3.98 nM in series [4]; 3.16 nM in series [5]; 7.94 nM in series [2]; 20 nM in series [3]; 0.631 nM on Histamine H1 receptor.
In the case of `CC1CN(C2=Cc3ccccc3Cn3ccnc32)CC(C)N1CCC(=O)O` (stereo not drawn), the inhibition constant Ki in [1] was 631 nM; in [2], 39.8 nM; in series [3], 158 nM; at Histamine H1 receptor, 20 nM.
For orientation: half-life means the time in which the quantity being followed falls by half. Lower therefore signals fast loss. Broadly, the fraction unbound is the share of the substance not bound to proteins or other matrix. Usually bioavailability stands for the share of a dose that reaches the circulation, judged against a reference dose that is usually intravenous. On to `CC(C)(CN1CCN(C2=Cc3ccccc3Cn3cc(F)nc32)CC1)C(=O)O`, for which the inhibition constant (Ki) is 316 nM in series [1], 100 nM in series [2], 316 nM in series [3] and 39.8 nM at Histamine H1 receptor. Moreover, the Kp in series [6] was determined as 0.04. Also, in series [7], the half-life was 1.8 h. Also, in series [8], the clearance worked out at 10 mL/min/kg. Further, the fraction unbound in series [9] came out at 0.45; in series [10], 0.4. This molecule also showed a bioavailability in series [11] of 45%. Further, the Vd in series [12] was found to be 1.1 L/kg.
On to `CC(C)(CN1CCN(C2=Cc3ccccc3Cn3ccnc32)CC1)C(=O)O`, for which the Ki is 1580 nM in series [1], 79.4 nM in [2], 50.1 nM in series [3] and 25.1 nM on Histamine H1 receptor. Besides, the bioavailability in [13] is 61%. In series [14], this molecule showed a half-life of 0.7 h. In addition, the free fraction (fraction unbound) in [9] and in series [10] was greater than 0.5 each time. In [15], this molecule displayed a clearance of 38 mL/min/kg. Moreover, the Kp in series [16] is 0.02. The Vd in [17] amounted to 1.9 L/kg.
Take `O=C(O)C1CC(N2CCN(C3=Cc4ccccc4Cn4ccnc43)CC2)C1` (stereo in doubt; 13): the inhibition constant Ki in series [1] was greater than 794 nM; in series [2] it was greater than 794 nM; in [3] it was greater than 794 nM; on Histamine H1 receptor, 12.6 nM.
In the case of `CC(C)(CN1CCN(C2=Cc3ccccc3Cn3cc(Cl)nc32)CC1)C(=O)O`, the Ki in [1] was 100 nM.
Consider `O=C(O)C1CC(N2CCN(C3=Cc4ccccc4Cn4ccnc43)CC2)C1` (single isomer, unassigned; isomer 2), for which the pKi in [1] (sh-sy5y), in series [2] (hek293) and in series [3] was less than 6.1 in each case. Besides, the Ki on Histamine H1 receptor was 25.1 nM.
In the case of `CC(C)(CN1CCCN(C2=Cc3ccccc3Cn3ccnc32)CC1)C(=O)O`, the inhibition constant Ki in series [1] is greater than 2000 nM; in series [2], greater than 5010 nM; in series [3], greater than 2000 nM; at Histamine H1 receptor, 50.1 nM.
